Patent publication US8703768B2, “Nitrogen containing heteroaryl compounds” (Hoffmann-La Roche Inc., priority 2010, dated 2014)

target: human PDE10A (Homo sapiens (Human), UniProt Q9Y233); assay: human PDE10A full length Scintillation Proximity Assay (SPA); assay type: biochemical; settings: 50 nM cGMP and 50 nM [3H]-cGMP, 20 minutes at room temperature; read-out: PDE10A inhibition IC50
Protocol: The following test was carried out in order to determine the activity of the compounds of the present invention.
The human PDE10A full length assay was performed in 96-well micro titer plates. […] Non-specific activity was tested without the enzyme. The reaction was initiated by the addition of the substrate solution (cGMP and [^3H]-cGMP) and allowed to progress for 20 minutes at room temperature. The reaction was terminated by adding 25 μl of YSi-SPA scintillation beads (GE Healthcare, cat. # RPNQ0150) in 18 mM zinc sulphate solution (stop reagent). After 1 h under shaking, the plate was centrifuged one minute at 170 g to allow beads to settle. Afterwards, radioactive counts were measured on a Perkin Elmer TopCount Scintillation plate reader.

human PDE10A, sequence (Q9Y233 other isoform, or with tags, fused parts or gaps): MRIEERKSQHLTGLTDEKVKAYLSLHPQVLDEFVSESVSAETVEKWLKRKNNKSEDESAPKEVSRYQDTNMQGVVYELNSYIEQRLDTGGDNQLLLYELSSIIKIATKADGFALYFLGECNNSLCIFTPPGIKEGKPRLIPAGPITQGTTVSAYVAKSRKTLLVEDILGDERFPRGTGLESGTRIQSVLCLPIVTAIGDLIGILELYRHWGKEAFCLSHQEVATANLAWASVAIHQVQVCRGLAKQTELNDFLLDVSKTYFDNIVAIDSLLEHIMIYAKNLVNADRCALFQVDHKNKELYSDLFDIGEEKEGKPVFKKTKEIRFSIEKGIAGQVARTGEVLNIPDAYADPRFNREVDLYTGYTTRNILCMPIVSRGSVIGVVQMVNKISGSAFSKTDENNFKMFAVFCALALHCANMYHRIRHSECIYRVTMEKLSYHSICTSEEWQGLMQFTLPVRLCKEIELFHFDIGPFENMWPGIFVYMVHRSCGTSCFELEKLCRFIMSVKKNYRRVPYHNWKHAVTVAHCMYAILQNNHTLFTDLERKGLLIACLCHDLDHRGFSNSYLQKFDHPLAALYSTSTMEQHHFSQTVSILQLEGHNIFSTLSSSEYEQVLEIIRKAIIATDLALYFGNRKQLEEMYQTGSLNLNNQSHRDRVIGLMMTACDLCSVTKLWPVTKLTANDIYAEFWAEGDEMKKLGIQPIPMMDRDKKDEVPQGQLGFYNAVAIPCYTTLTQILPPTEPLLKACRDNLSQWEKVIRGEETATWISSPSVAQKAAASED

Row | IC50 [nM] | SMILES
1 | 65.7 | O=C(Nc1cnccc1C(=O)N1CCC(F)(F)C1)c1nc(C2CC2)ccc1Nc1cncnc1 [Example 56, 6-Cyclopropyl-3-(pyrimidin-5-ylamino)-pyridine-2-carboxylic acid [4-(3,3-difluoro-pyrrolidine-1-carbonyl)-pyridin-3-yl]-amide]
2 | 2.1 | O=C(NC1CC1)c1ccncc1NC(=O)c1nc(C2CC2)ccc1Nc1cncnc1 [Example 57, 6-Cyclopropyl-3-(pyrimidin-5-ylamino)-pyridine-2-carboxylic acid (4-cyclopropylcarbamoyl-pyridin-3-yl)-amide]
3 | 1.1 | O=C(NC1CCC1)c1ccncc1NC(=O)c1nc(C2CC2)ccc1Nc1cncnc1 [Example 58, 6-Cyclopropyl-3-(pyrimidin-5-ylamino)-pyridine-2-carboxylic acid (4-cyclobutylcarbamoyl-pyridin-3-yl)-amide]
4 | 84.4 | CC1CCC(C)N1C(=O)c1ccncc1NC(=O)c1nc(C2CC2)ccc1Nc1cncnc1 (centres unmarked) [Example 59, 6-Cyclopropyl-3-(pyrimidin-5-ylamino)-pyridine-2-carboxylic acid [4-(2,5-dimethyl-pyrrolidine-1-carbonyl)-pyridin-3-yl]-amide]
5 | 232 | O=C1CN(C(=O)c2ccncc2NC(=O)c2nc(C3CC3)ccc2Nc2cncnc2)CCN1 [Example 60, 6-Cyclopropyl-3-(pyrimidin-5-ylamino)-pyridine-2-carboxylic acid [4-(3-oxo-piperazine-1-carbonyl)-pyridin-3-yl]-amide]
6 | 1.3 | O=C(NC1CCCC1)c1ccncc1NC(=O)c1nc(C2CC2)ccc1Nc1cncnc1 [Example 61, 6-Cyclopropyl-3-(pyrimidin-5-ylamino)-pyridine-2-carboxylic acid (4-cyclopentylcarbamoyl-pyridin-3-yl)-amide]
7 | 93.9 | COC1CCN(C(=O)c2ccncc2NC(=O)c2nc(C3CC3)ccc2Nc2cncnc2)C1 (centres unmarked) [Example 62, 6-Cyclopropyl-3-(pyrimidin-5-ylamino)-pyridine-2-carboxylic acid [4-(3-methoxy-pyrrolidine-1-carbonyl)-pyridin-3-yl]-amide]
8 | 87 | CC1(C)CCN(C(=O)c2ccncc2NC(=O)c2nc(C3CC3)ccc2Nc2cncnc2)C1 [Example 63, 6-Cyclopropyl-3-(pyrimidin-5-ylamino)-pyridine-2-carboxylic acid [4-(3,3-dimethyl-pyrrolidine-1-carbonyl)-pyridin-3-yl]-amide]
9 | 1110 | CNC(=O)c1nc(-c2ccccc2)sc1NC(=O)c1nc(C2CC2)ccc1Nc1cncnc1 [Example 64, 6-Cyclopropyl-3-(pyrimidin-5-ylamino)-pyridine-2-carboxylic acid (4-methylcarbamoyl-2-phenyl-thiazol-5-yl)-amide]
10 | 1.4 | CNC(=O)c1nc(-c2ccccn2)sc1NC(=O)c1nc(C2CC2)ccc1Nc1cncnc1 [Example 65, 6-Cyclopropyl-3-(pyrimidin-5-ylamino)-pyridine-2-carboxylic acid (4-methylcarbamoyl-2-pyridin-2-yl-thiazol-5-yl)-amide]
11 | 47.8 | CC(CO)NC(=O)c1ccncc1NC(=O)c1nc(C2CC2)ccc1Nc1cncnc1 (centres unmarked) [Example 66, 6-Cyclopropyl-3-(pyrimidin-5-ylamino)-pyridine-2-carboxylic acid [4-(2-hydroxy-1-methyl-ethylcarbamoyl)-pyridin-3-yl]-amide]
12 | 4.2 | O=C(Nc1cnccc1C(=O)N1CCC1)c1nc(C2CC2)ccc1Nc1cncnc1 [Example 67, 6-Cyclopropyl-3-(pyrimidin-5-ylamino)-pyridine-2-carboxylic acid [4-(azetidine-1-carbonyl)-pyridin-3-yl]-amide]
13 | 3.3 | O=C(NCCO)c1ccncc1NC(=O)c1nc(C2CC2)ccc1Nc1cncnc1 [Example 68, 6-Cyclopropyl-3-(pyrimidin-5-ylamino)-pyridine-2-carboxylic acid [4-(2-hydroxy-ethylcarbamoyl)-pyridin-3-yl]-amide]
14 | 4.1 | O=C(NCC(O)CO)c1ccncc1NC(=O)c1nc(C2CC2)ccc1Nc1cncnc1 (centres unmarked) [Example 69, 6-Cyclopropyl-3-(pyrimidin-5-ylamino)-pyridine-2-carboxylic acid [4-(2,3-dihydroxy-propylcarbamoyl)-pyridin-3-yl]-amide]
15 | 2.1 | CC(C)(O)CNC(=O)c1ccncc1NC(=O)c1nc(C2CC2)ccc1Nc1cncnc1 [Example 70, 6-Cyclopropyl-3-(pyrimidin-5-ylamino)-pyridine-2-carboxylic acid [4-(2-hydroxy-2-methyl-propylcarbamoyl)-pyridin-3-yl]-amide]
16 | 56.4 | CN(CCCO)C(=O)c1ccncc1NC(=O)c1nc(C2CC2)ccc1Nc1cncnc1 [Example 71, 6-Cyclopropyl-3-(pyrimidin-5-ylamino)-pyridine-2-carboxylic acid {4-[(3-hydroxy-propyl)-methyl-carbamoyl]-pyridin-3-yl}-amide]

Row | IC50 [nM] | SMILES
17 | 4.2 | COCC(C)NC(=O)c1ccncc1NC(=O)c1nc(C2CC2)ccc1Nc1cncnc1 (centres unmarked) [Example 72, 6-Cyclopropyl-3-(pyrimidin-5-ylamino)-pyridine-2-carboxylic acid [4-(2-methoxy-1-methyl-ethylcarbamoyl)-pyridin-3-yl]-amide]
18 | 18.9 | CN(CCO)C(=O)c1ccncc1NC(=O)c1nc(C2CC2)ccc1Nc1cncnc1 [Example 73, 6-Cyclopropyl-3-(pyrimidin-5-ylamino)-pyridine-2-carboxylic acid {4-[(2-hydroxy-ethyl)-methyl-carbamoyl]-pyridin-3-yl}-amide]
19 | 7.3 | CN(C)C(=O)c1nn(-c2ccccn2)cc1NC(=O)c1nc(C2CC2)ccc1Nc1cncnc1 [Example 74, 6-Cyclopropyl-3-(pyrimidin-5-ylamino)-pyridine-2-carboxylic acid (3-dimethylcarbamoyl-1-pyridin-2-yl-1H-pyrazol-4-yl)-amide]
20 | 8.8 | CNC(=O)c1nn(C)cc1NC(=O)c1nc(C(C)C)ncc1Nc1cncnc1 [Example 75, 2-Isopropyl-5-(pyrimidin-5-ylamino)-pyrimidine-4-carboxylic acid (1-methyl-3-methylcarbamoyl-1H-pyrazol-4-yl)-amide]
21 | 7.9 | CNC(=O)c1nn(C)cc1NC(=O)c1nc(C2CC2)ncc1Nc1cncnc1 [Example 76, 2-Cyclopropyl-5-(pyrimidin-5-ylamino)-pyrimidine-4-carboxylic acid (1-methyl-3-methylcarbamoyl-1H-pyrazol-4-yl)-amide]
22 | 3.4 | CNC(=O)c1nn(C)cc1NC(=O)c1nc(C(C)(C)C)ncc1Nc1cncnc1 [Example 77, 2-tert-Butyl-5-(pyrimidin-5-ylamino)-pyrimidine-4-carboxylic acid (1-methyl-3-methylcarbamoyl-1H-pyrazol-4-yl)-amide]
23 | 2 | O=C(NC1CCCCC1)c1ccncc1NC(=O)c1nc(C2CC2)ccc1Nc1cncnc1 [Example 78, 6-Cyclopropyl-3-(pyrimidin-5-ylamino)-pyridine-2-carboxylic acid (4-cyclohexylcarbamoyl-pyridin-3-yl)-amide]
24 | 29.6 | O=C(Nc1cnccc1C(=O)N1CC(F)(F)C1)c1nc(C2CC2)ccc1Nc1cncnc1 [Example 79, 6-Cyclopropyl-3-(pyrimidin-5-ylamino)-pyridine-2-carboxylic acid [4-(3,3-difluoro-azetidine-1-carbonyl)-pyridin-3-yl]-amide]
25 | 105 | O=C(Nc1cnccc1C(=O)N1CCCC1CO)c1nc(C2CC2)ccc1Nc1cncnc1 (centres unmarked) [Example 80, 6-Cyclopropyl-3-(pyrimidin-5-ylamino)-pyridine-2-carboxylic acid [4-(2-hydroxymethyl-pyrrolidine-1-carbonyl)-pyridin-3-yl]-amide]
26 | 0.4 | CNC(=O)c1cn2cc(-c3ccccc3)nc2cc1NC(=O)c1nc(C2CC2)ccc1Nc1cncnc1 [Example 81, 7-{[6-Cyclopropyl-3-(pyrimidin-5-ylamino)-pyridine-2-carbonyl]-amino}-2-phenyl-imidazo[1,2-a]pyridine-6-carboxylic acid methylamide]
27 | 58.5 | O=C(Nc1cnccc1C(=O)N1CC(O)C1)c1nc(C2CC2)ccc1Nc1cncnc1 [Example 82, 6-Cyclopropyl-3-(pyrimidin-5-ylamino)-pyridine-2-carboxylic acid [4-(3-hydroxy-azetidine-1-carbonyl)-pyridin-3-yl]-amide]
28 | 5.5 | CNC(=O)c1nn(C)cc1NC(=O)c1nc(CC(C)C)ncc1Nc1cncnc1 [Example 83, 2-Isobutyl-5-(pyrimidin-5-ylamino)-pyrimidine-4-carboxylic acid (1-methyl-3-methylcarbamoyl-1H-pyrazol-4-yl)-amide]
29 | 1.9 | CNC(=O)c1nn(C)cc1NC(=O)c1nc(C2CCCCC2)ncc1Nc1cncnc1 [Example 84, 2-Cyclohexyl-5-(pyrimidin-5-ylamino)-pyrimidine-4-carboxylic acid (1-methyl-3-methylcarbamoyl-1H-pyrazol-4-yl)-amide]
30 | 215 | CN(CC(O)CO)C(=O)c1ccncc1NC(=O)c1nc(C2CC2)ccc1Nc1cncnc1 (centres unmarked) [Example 86, 6-Cyclopropyl-3-(pyrimidin-5-ylamino)-pyridine-2-carboxylic acid {4-[(2,3-dihydroxy-propyl)-methyl-carbamoyl]-pyridin-3-yl}-amide]
31 | 180 | O=C(Nc1cnccc1C(=O)N1CCC(O)C1)c1nc(C2CC2)ccc1Nc1cncnc1 (centres unmarked) [Example 87]
32 | 0.5 | O=C(NC1CC1)c1ccsc1NC(=O)c1nc(C2CC2)ccc1Nc1cncnc1 [Example 89, 6-Cyclopropyl-3-(pyrimidin-5-ylamino)-pyridine-2-carboxylic acid (3-cyclopropylcarbamoyl-thiophen-2-yl)-amide]
